For test [1], the system named is HepG2 cells derived from human liver cancer. Put plainly: EPO production in HepG2 cells (EPO ELISA of culture supernatant). The settings on record: for activity at 3 µM: HepG2, 3 μM test compound, 48 hrs, 4% oxygen, non-stimulated state without compound = 100%, read-out: amount of EPO production, % of control (3 μM). Type of test: cell-based. How it is done:
HepG2 cells derived from human liver cancer were inoculated in an amount of 5×10^4 cells per well on a 48-well plate, using minimum essential medium (MEM, Sigma-Aldrich Company) containing 10% bovine fetal serum. On the next day, the medium was exchanged with Dulbecco's modified eagle medium (DMEM (Sigma-Aldrich Company)) containing 10% bovine fetal serum without Phenol Red. Then, a test compound dissolved in DMSO was added thereto to obtain a final concentration of 3 μM or 10 μM, and the amount of medium was adjusted to 400 μL per well. The cells were incubated for 48 hrs in a CO2 incubator in which the oxygen concentration was adjusted to 4%, and then the culture supernatant was collected. The EPO concentration in the culture supernatant was immediately measured using an EPO ELISA kit (Roche Diagnostics GmbH). The method was carried out according to the operation manual.
The amount of EPO production in a non-stimulated state where no compounds were added, was designated as 100%, and the amount of EPO production (% of control) induced by each of the compounds was determined.
(In general: ELISA stands for enzyme-linked immunosorbent assay.)

The test system of test [2] is K562 cells, a human proerythroblast cell line. In words: Hemoglobin production in K562 cells (fluorescence of the porphyrin ring). In kind it is cell-based. The settings on record: for activity at 6 µM: Homo sapiens, K562, 144 h, 6 μM test compound, 3 + 3 days incubation, non-stimulated state without compound = 100, read-out: amount of hemoglobin, % of control (6 μM); for enhancement of hemoglobin production: drug concentration 20 μM. As to the method:
K562 cells (obtained from ATCC), which is a human proerythroblast cell line, were inoculated at a concentration of 1×10^5 cells/1 mL in each well of a 24-well plate, using complete medium (RPMI-1640 medium containing 10% bovine fetal serum), and 1 μL of a test compound at a 1000-fold concentration was added to each well. Subsequently, the cells were incubated for 3 days in a CO2 incubator (37° C., 5% CO2). The medium was exchanged, and the cells were further incubated for 3 days. The cells were collected and counted. Subsequently, the amount of hemoglobin produced in the cells was determined by adjusting the number of cells to 3×10^5 cells, and measuring the fluorescence of the porphyrin ring. That is, the cells collected by centrifugation were suspended in 500 μL of 2 M oxalic acid, and were heated to boil for 30 minutes. The cells were cooled, and then the fluorescence intensity was measured by using a fluorescence microplate reader (Spectra MAX GeminiEM; Molecular Devices Corp.) ([…]). The amount of hemoglobin in a non-stimulated state where no compound was added was designated as 100-, and the amount of hemoglobin (% of control) produced as induced by each of the compounds was determined.

Turning to `CCOC(=O)c1ccc2c(c1)C(Nc1ccc(C3CCCCC3)cc1)CC(C)N2C(C)=O` (stereo not drawn) [Compound 144, Ethyl 1-Acetyl-4-[(4-cyclohexylphenyl)-amino]-2-methyl-1,2,3,4-tetrahydroquinoline-6-carboxylate], the activity at 3 µM in test [1] (Homo sapiens) came to 180%. Also, in test [2], the activity at 6 µM was found to be 338%.

As for `CC(=O)N1c2ccc(C(=O)NC#N)cc2C(Nc2ccc(Cl)cc2)CC1C` (stereo not drawn) [Compound 128, 1-Acetyl-4-[(4-chlorophenyl)-amino]-N-cyano-2-methyl-1,2,3,4-tetrahydroquinoline-6-carboxamide], the activity at 3 µM in test [1] (Homo sapiens) stood at 176%. The activity at 6 µM in test [2] turned out to be 120%.

Turning to `CC(=O)N1c2c(Br)cccc2C(Nc2ccccc2)CC1C` (stereo not drawn) [Compound 63, 1-Acetyl-8-bromo-4-phenylamino-2-methyl-1,2,3,4-tetrahydroquino-line], the “enhancement of hemoglobin production” value in test [2] worked out at 260%.

`CNC(=O)c1ccc2c(c1)C(Nc1ccc(C3CCCCC3)cc1)CC(C)N2C(C)=O` (stereo not drawn) [Compound 146, 1-Acetyl-4-[(4-cyclohexylphenyl)-amino]-N,2-dimethyl-1,2,3,4-tetrahydroquinoline-6-carboxamide]: in test [1] (Homo sapiens), the activity at 3 µM came to 152%. In addition, in test [2], the activity at 6 µM stood at 208%.

Consider `CC(=O)N1c2ccccc2C(Nc2ccc3ocnc3c2)CC1C` (stereo not drawn) [Compound 136, 1-Acetyl-4-[(benzoxazol-5-yl)-amino]-2-methyl-1,2,3,4-tetrahydroquinoline], for which the activity at 3 µM in test [1] (Homo sapiens) came to 141%. The activity at 6 µM in test [2] was found to be 136%.

In the case of `CC(=O)N1c2ccc(C(=O)NC(=O)c3ccccc3)cc2C(Nc2ccc(N3CCOCC3)cc2)CC1C` (stereo not drawn) [Compound 166, 1-Acetyl-N-benzoyl-2-methyl-4-[(4-morpholinophenyl)-amino]-1,2,3,4-tetrahydroquinoline-6-carboxamide], the activity at 3 µM in test [1] (Homo sapiens) was found to be 185%. The activity at 6 µM in test [2] was 282%.

As to `CC(=O)N1c2ccc(N3CCN(C(C)C)CC3)cc2C(Nc2ccc(N3CCOCC3)cc2)CC1C` (stereo not drawn) [Compound 159, 1-Acetyl-6-(4-isopropylpiperazin-1-yl)-2-methyl-4-[(4-morpholinophenyl)-amino]-1,2,3,4-tetrahydroquinoline], the activity at 3 µM in test [1] (Homo sapiens) is 292%.

Turning to `CC(=O)N1c2ccc(C(=O)Nc3cccnc3)cc2C(Nc2ccc(Cl)cc2)CC1C` (stereo not drawn) [Compound 131, 1-Acetyl-4-[(4-chlorophenyl)-amino]-2-methyl-N-(3-pyridyl)-1,2,3,4-tetrahydroquinoline-6-carboxamide], the activity at 3 µM in test [1] (Homo sapiens) came to 153%. In addition, the activity at 6 µM in test [2] amounted to 263%.

Turning to `CC(=O)N1c2ccc(N3CC(C)OC(C)C3)cc2C(Nc2ccc(NS(C)(=O)=O)cc2)CC1C` (stereo not drawn) [Compound 110, 1-Acetyl-6-[(2,6-dimethyl)-morpholino]-4-[(4-methanesulfonylaminophenyl)-amino]-2-methyl-1,2,3,4-tetrahydroquinoline], the activity at 3 µM in test [1] (Homo sapiens) is 207%.

Turning to `CNC(=O)c1ccc2c(c1)C(Nc1cccc(N3CCOCC3)c1)CC(C)N2C(C)=O` (stereo not drawn) [Compound 180, 1-Acetyl-N,2-dimethyl-4-[(3-morpholinophenyl)amino]-1,2,3,4-tetrahydroquinoline-6-carboxamide], the activity at 6 µM in test [2] came out at 150%.

As to `CC(=O)N1c2ccc(C(=O)O)cc2C(Nc2ccc(Cl)cc2)CC1C` (stereo not drawn) [Compound 42, 1-Acetyl-4-[(4-chlorophenyl)-amino]-2-methyl-1,2,3,4-tetrahydro-quinoline-6-carboxylic acid], the “enhancement of EPO production” value in test [1] (final concentration 10 μM, non-stimulated state = 100%) is reported as 138%.

`CC(=O)N1c2ccccc2[C@H](OCc2ccccc2)C[C@@H]1C` (relative stereo) [Compound 36, 1-Acetyl-2-methyl-4-benzyloxy-1,2,3,4-tetrahydroquinoline]: the “enhancement of hemoglobin production” value in test [2] came out at 143%.

`CC(=O)N1c2ccc(NS(C)(=O)=O)cc2C(Nc2ccc(N3CCOCC3)cc2)CC1C` (stereo not drawn) [Compound 98, 1-Acetyl-6-methanesulfonylamino-2-methyl-4-[(4-morpholinophenyl)-amino]-1,2,3,4-tetrahydroquin-oline]: the “enhancement of hemoglobin production” value in test [2] is 142%.

As to `CC(=O)N1c2ccc(-c3cnc(C)[nH]3)cc2C(Nc2ccc(Cl)cc2)CC1C` (stereo not drawn) [Compound 127, 4-{1-Acetyl-4-[(4-chlorophenyl)-amino]-2-methyl-1,2,3,4-tetra-hydroquinolin-6-yl}-2-methyl-1H-imidazole], the activity at 10 µM in test [1] (Homo sapiens, HepG2, 48 h, final concentration 10 μM, non-stimulated state = 100%, read-out: enhancement of EPO production) was 130%. In test [1] (Homo sapiens), the activity at 3 µM came to 96%.

`CC(=O)N1c2ccc(C(N)=O)cc2[C@H](Nc2ccc(NS(C)(=O)=O)cc2)C[C@@H]1C` (relative stereo) [Compound 102, 1-Acetyl-4-[(4-methanesulfonyl-aminophenyl)amino]-2-methyl-1,2,3,4-tetrahydroquinoline-6-carbox-amide]: the “enhancement of hemoglobin production” value in test [2] is 115%.

For `CC(=O)N1c2ccc(N3CCN(C(=O)C(C)C)CC3)cc2C(Nc2ccc(NS(C)(=O)=O)cc2)CC1C` (stereo not drawn) [Compound 111, 1-Acetyl-6-[(4-isopropylcarbonyl)-piperazino]-4-[(4-methanesulfonyl-aminophenyl)amino]-2-methyl-1,2,3,4-tetrahydroquinoline], the “enhancement of hemoglobin production” value in test [2] was found to be 171%.

Take `COC(=O)CCCc1ccc(NC(=O)c2ccc3c(c2)C(Nc2ccc(Cl)cc2)CC(C)N3C(C)=O)cc1` (stereo not drawn) [Compound 150, Methyl 4-{4-{1-Acetyl-4-[(4-chlorophenyl)-amino]-2-methyl-1,2,3,4-tetrahydroquinoline-6-carboxamido}-phenyl}butanoate]: the activity at 6 µM in test [2] amounted to 534%.

In the case of `CCOC(=O)c1ccc2c(c1)C(Nc1ccc(C3CCOCC3)cc1)CC(C)N2C(C)=O` (stereo not drawn) [Compound 153, Ethyl 1-acetyl-2-methyl-4-{[4-(tetrahydro-2H-pyran-4-yl)-phenyl]amino}-1,2,3,4-tetrahydroquinoline-6-carboxylate], in test [2], the activity at 6 µM was found to be 294%.

For the compound `CNC(=O)c1ccc2c(c1)C(Nc1ccc(-c3ncco3)cc1)CC(C)N2C(C)=O` (stereo not drawn) [Compound 170, 1-Acetyl-N,2-dimethyl-4-{[4-(oxazol-2-yl)phenyl]-amino}-1,2,3,4-tetrahydroquinoline-6-carboxamide], the activity at 3 µM in test [1] (Homo sapiens) was 128%.

For `CC(=O)N1c2ccc(C(=O)O)cc2C(Oc2ccc(Cl)cc2)CC1C` (stereo not drawn) [Compound 141, 1-Acetyl-4-(4-chlorophenoxy)-2-methyl-1,2,3,4-tetrahydro-quinoline-6-carboxylic acid], the activity at 6 µM in test [2] stood at 209%.

Regarding `CC(=O)N1c2ccc(C(=O)O)cc2C(Oc2ccc(N3CCOCC3)cc2)CC1C` (stereo not drawn) [Compound 139, 1-Acetyl-2-methyl-4-(4-morpho-linophenoxy)-1,2,3,4-tetrahydro-quinoline-6-carboxylic acid], in test [2], the activity at 6 µM was determined as 193%.

On to `CNC(=O)c1ccc2c(c1)C(Nc1ccc(C3CCOCC3)cc1)CC(C)N2C(C)=O` (stereo not drawn) [Compound 155, 1-Acetyl-N,2-dimethyl-4-{[4-(tetrahydro-2H-pyran-4-yl)phenyl]amino}-1,2,3,4-tetrahydroquino-line-6-carboxamide], for which the activity at 6 µM in test [2] was determined as 387%.

Take `CC(=O)N1c2ccc(C(N)=O)cc2C(Nc2ccc(C3CCOCC3)cc2)CC1C` (stereo not drawn) [Compound 156, 1-Acetyl-2-methyl-4-{[4-(tetrahydro-2H-pyran-4-yl)phenyl]amino}-1,2,3,4-tetrahydroquinoline-6-carboxamide]: the activity at 6 µM in test [2] was found to be 371%.

Regarding `CCOC(=O)Cc1ccc(NC2CC(C)N(C(C)=O)c3ccc(NS(C)(=O)=O)cc32)cc1` (stereo not drawn) [Compound 99, 1-Acetyl-6-methanesulfonylamino-2-methyl-4-[(4-ethoxycarbonyl-methylphenyl)amino]-1,2,3,4-tetra-hydroquinoline], in test [2], the “enhancement of hemoglobin production” value was found to be 306%.

Regarding `CC(=O)N1c2ccc(C(=O)NCCOCCOCCOCCC(=O)OC(C)(C)C)cc2C(Nc2ccc(Cl)cc2)CC1C` (stereo not drawn) [Compound 148, Tert-butyl 12-{1-Acetyl-4-[(4-chlorophenyl)-amino]-2-methyl-1,2,3,4-tetrahydroquinoline-6-carboxamido}-4,7,10-trioxadodecanoate], in test [2], the activity at 6 µM stood at 506%.

As for `CC(=O)N1c2c(F)cccc2[C@H](Nc2ccccc2F)C[C@@H]1C` (relative stereo) [Compound 4, 1-Acetyl-8-fluoro-4-[(2-fluoro-phenyl)amino]-2-methyl-1,2,3,4-tetrahydroquinoline], in test [2], the “enhancement of hemoglobin production” value is recorded as 162%.

The values are drawn from US9045423B2, “Prophylactic and/or therapeutic agent for anemia comprising tetrahydroquinoline compound as active ingredient” (KOWA COMPANY, LTD., priority 2009, dated 2015).
